TGI data for eight molecules are collected here from PubChem BioAssay (NCI).

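Method: 48-hour compound exposure of cells in 96-well plates, five concentrations, linear interpolation of endpoints. At the TGI there is no net growth.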

Some test systems named below: BT-549 breast; HL-60(TB) leukemia; IGROV1 ovarian; K-562 leukemia; KM12 colon; MCF7 breast; MOLT-4 leukemia; NCI-H23 lung; NCI-H460 lung; NCI-H522 lung; OVCAR-8 ovarian; TK-10 renal; UACC-257 melanoma; UO-31 renal.
What all share (experiment): NCI anticancer screen, dose series, 48 h

Take `COc1cc(/C=C2/Oc3c(OC)cccc3C2=O)ccc1O`: the TGI in the assay with BT-549 breast, in the assay with HL-60(TB) leukemia, in the assay with IGROV1 ovarian, in the assay with K-562 leukemia, in the assay on KM12 colon and in the assay with MCF7 breast was more than 100 µM throughout. Further, the TGI with MOLT-4 leukemia, in the assay with NCI-H23 lung, in the assay on NCI-H460 lung, with NCI-H522 lung, with OVCAR-8 ovarian and in the assay on TK-10 renal was more than 100 µM in each case. Besides, the TGI in the assay on UACC-257 melanoma and in the assay with UO-31 renal was more than 100 µM each time.
As for `N#CC(NNC(=O)c1ccccc1O)c1c(O)ccc2ccccc12` (configuration not stated), the TGI was more than 54.8 µM with BT-549 breast; 12.2 µM with HL-60(TB) leukemia; 33.9 µM in the assay with IGROV1 ovarian; more than 66.3 µM with K-562 leukemia; more than 100 µM in the assay with KM12 colon; 53.6 µM with MCF7 breast. The TGI with MOLT-4 leukemia turned out to be 37.8 µM; in the assay with NCI-H23 lung, 20.8 µM; in the assay on NCI-H460 lung it was 36.8 µM; with NCI-H522 lung, 18.7 µM; with OVCAR-8 ovarian it was 25.9 µM; with TK-10 renal, 36.5 µM. Moreover, the results for the TGI in the assay on UACC-257 melanoma and in the assay on UO-31 renal were 24.9 µM and 11.4 µM, respectively.
As for `CC1CCCN1CCCOC(=O)c1ccc(OC2C=CCCC2)cc1` (configuration not stated), the TGI with BT-549 breast is more than 100 µM; in the assay with HL-60(TB) leukemia, 35.6 µM; in the assay on IGROV1 ovarian, 58.4 µM; in the assay with K-562 leukemia, 38.9 µM; in the assay with KM12 colon, more than 100 µM; in the assay on MCF7 breast, 49.6 µM. For the same molecule, the TGI in the assay on MOLT-4 leukemia is 55.3 µM; in the assay with NCI-H23 lung, 63.3 µM; in the assay with NCI-H460 lung, 32.9 µM; in the assay on NCI-H522 lung, 54 µM; in the assay on OVCAR-8 ovarian, more than 100 µM; in the assay on TK-10 renal, 88.8 µM. Besides, the TGI with UACC-257 melanoma and with UO-31 renal was more than 100 µM throughout.
On to `Cc1cc2c(cc1Cl)Sc1n[nH]c(=O)n1S2(=O)=O`, for which the TGI with BT-549 breast, with HL-60(TB) leukemia, in the assay with IGROV1 ovarian, in the assay on K-562 leukemia, in the assay with KM12 colon and in the assay with MCF7 breast was more than 100 µM throughout. In addition, the TGI in the assay with MOLT-4 leukemia, in the assay on NCI-H23 lung, in the assay with NCI-H460 lung, in the assay on NCI-H522 lung, in the assay on OVCAR-8 ovarian and in the assay on TK-10 renal was more than 100 µM throughout. Besides, the TGI in the assay on UACC-257 melanoma and with UO-31 renal was more than 100 µM throughout.
Take `c1ccc(Nc2nnc(CCCCCCCCc3nnc(Nc4ccccc4)o3)o2)cc1`: the TGI in the assay on BT-549 breast, in the assay with HL-60(TB) leukemia, in the assay with IGROV1 ovarian, in the assay on K-562 leukemia, in the assay on KM12 colon and in the assay with MCF7 breast was more than 100 µM each time. Besides, the TGI with MOLT-4 leukemia, with NCI-H23 lung, with NCI-H460 lung, in the assay with NCI-H522 lung, with OVCAR-8 ovarian and in the assay on TK-10 renal was more than 100 µM in each case. Also, the TGI with UACC-257 melanoma and in the assay on UO-31 renal was more than 100 µM throughout.
Consider `S=c1[nH]n2c(COc3cc(Cl)c(OCc4nnc5sc(=S)[nH]n45)cc3Cl)nnc2s1`, for which the TGI in the assay with BT-549 breast is more than 100 µM; with HL-60(TB) leukemia, more than 100 µM; with IGROV1 ovarian it was more than 100 µM; with K-562 leukemia, more than 100 µM; in the assay with KM12 colon it was more than 100 µM; with MCF7 breast, 40.8 µM. Besides, the TGI was more than 100 µM in the assay with MOLT-4 leukemia; more than 100 µM with NCI-H23 lung; more than 100 µM in the assay on NCI-H460 lung; 53.9 µM in the assay with NCI-H522 lung; more than 100 µM with OVCAR-8 ovarian; more than 100 µM with TK-10 renal. In addition, the TGI with UACC-257 melanoma was more than 100 µM; in the assay on UO-31 renal it was 86.4 µM.
For the molecule `Cc1cc(C)nc(NS(=O)(=O)c2ccc(Nc3c4ccccc4nc4ccc(C(=O)Nc5ccc(S(=O)(=O)N=C(N)N)cc5)cc34)cc2)n1`, the TGI in the assay with BT-549 breast was 95.2 µM; with HL-60(TB) leukemia, more than 100 µM; with IGROV1 ovarian, more than 100 µM; in the assay with K-562 leukemia it was 62.3 µM; in the assay with KM12 colon it was more than 100 µM; in the assay on MCF7 breast, 43.9 µM. Besides, the TGI in the assay on MOLT-4 leukemia, with NCI-H23 lung, with NCI-H460 lung, with NCI-H522 lung, in the assay with OVCAR-8 ovarian and with TK-10 renal was more than 100 µM throughout. For the same molecule, the TGI with UACC-257 melanoma and in the assay on UO-31 renal was more than 100 µM each time.
Take `O=C1C2CC[C@@H]3C(=O)C(Cl)(Cl)[C@@H]3CCC2C1(Cl)Cl` (some centres not stated): the TGI with BT-549 breast is more than 100 µM; with HL-60(TB) leukemia, 16.7 µM; with IGROV1 ovarian, more than 100 µM; in the assay with K-562 leukemia it was more than 100 µM; with KM12 colon, more than 100 µM; in the assay with MCF7 breast it was more than 91.1 µM. In addition, the TGI in the assay with MOLT-4 leukemia is 74.7 µM; in the assay with NCI-H23 lung, more than 100 µM; in the assay with NCI-H460 lung, more than 100 µM; with NCI-H522 lung, more than 100 µM; in the assay on OVCAR-8 ovarian, more than 100 µM; with TK-10 renal, more than 100 µM. Moreover, the TGI in the assay on UACC-257 melanoma and with UO-31 renal was more than 100 µM throughout.
